Here are results for nine compounds from patent US20260200903A1, “PHARMACEUTICAL COMPOSITION FOR AMELIORATING MALIGNANT DISEASES” (KINKI UNIVERSITY, priority 2020, published 2026).

Assay type in all cases: cell-based
Test [1] relates to Raji cells (burkitt lymphoma cell line). The test is described as follows: Cell death inducing effect on Raji cells, trypan blue staining. Conditions: Raji (Burkkit lymphoma), cell viability. Here is the method: Raji cells (burkitt lymphoma cell line) were cultured under 5% CO2 at 37° C. The culture medium used RPMI-1640 medium with 100 μg/mL penicillin, 100 U/mL streptomycin and fetal bovine serum. Raji cells were seeded into 96-well plates and incubated with each concentration of the compounds was added, and cell viability was determined by the trypan blue staining.
(§1) For controls, only 0.5% DMSO (diluted in PBS) used to dissolve the compounds was added. For each concentration, each bar line is indicated by an arrow with the sign “n, a, 1, 2, 3, 4, 5, 6, 7, 8, 9, 10, 11, 12” from left to right. The “1, 3, 5, 7, 9, 11” are omitted from the graph, but the sign “1” shall be indicated by an arrow between the signs “a” and “2”, the sign “3” between the signs “2” and “4”, and other odd numbers shall likewise be indicated by arrows between even numbers before and after.
(§2) The sign “n” is the norathyriol (formula (n)) administration group, the sign “a” is the mangiferin 8a (formula (a)) administration group, the sign “1” is the yk-7 (formula (1)) administration group, the sign “2” is the yk-8-1 (formula (2)) administration group, the sign “3” is the yk-8-3 (formula (3)) administration group, the sign “4” is the M7 (formula (4)) administration group, the sign “5” is the M9 (formula (5)) administration group, the sign “6” is the M11 (formula (6)) administration group, the sign “7” is the M12 (formula (7)) administration group, the sign “8” is the M14 (formula (8)) administration group, the sign “9” is the M15 (formula (9)) administration group, the sign “10” is the M16 (formula (10)) administration group, the sign “11” is the M18 (formula (11)) administration group, the sign “12” is the M19 (formula (12)) administration group, respectively. The IC50 values for each compound is also listed in the upper right corner of the figure.

For the next test, the system named is NF-κB p52 nuclear. Kind of test: Immunoblotting of NF-κB p52 nuclear in KMS-28BM cells. The settings on record: nuclear fraction, 72 h, same concentrations (0.005-100 μM). How it is done: Immunoblotting was performed on KMS-28BM cells to investigate the inhibitory effect of each compound administration on NIK inhibition and the activation of IKK, NF-κB p52, and NF-κB p65, which are downstream signals of NIK. As a result, inhibition of NIK activation, inhibition of IKK activity, and inhibition of nuclear translocation of NF-κB p52 and NF-κB p65 were observed (FIG. 15 and FIG. 16).
As a control, compounds untreated KMS-28BM cells were seeded in 150 cm^2 flasks and incubated for 72 h at 37° C. and 5% CO2. KMS-28BM cells were seeded into 150 cm^2 flasks and pre-cultured for 24 h. After incubation, KMS-28BM cells were treated with […], 1 μM norathyriol, 0.5 μM M7 (formula (4)), 1 μM M8 (mangiferin 8a: listed in duplicate), 0.2 μM M9 (formula (5)), 5 μM yk-7 (formula (1)), 0.5 μM yk-8-3 (formula (3)) and 100 μM yk-8-1 (formula (2)) at final concentrations, and incubated for 72 h at 37° C. and 5% CO2. In addition, KMS-28BM cells were also treated with 0.5 μM M19 (formula (12)), 0.5 μM M18 (formula (11)), 0.005 μM M16 (formula (10)), […] (formula (9)), 0.005 μM M14 (formula (8)), 0.05 μM M12 (formula (7)) and […] (formula (6)) at the final concentrations, and incubated for 72 h at 37° C. and 5% CO2. Proteins were extracted from these cell suspensions with cell lysate and used as samples.
The nucleus and cytoplasmic substrate were separated from the cells using the ProteoExtract (registered trademark) Subcellular Proteome Extraction Kit from Merck Ltd. to extract the cytoplasmic and nuclear fractions.
After SDS-PAGE, each sample was transferred to a PVDF membrane and examined using anti-phospho-NIK, anti-NIK, anti-phospho-IKK, anti-IKK, anti-P-actin, anti-NF-κB p52 and anti-NF-κB p65 antibody, and anti-Lamin antibody.
The antibody species is indicated in the vertical direction. Specifically, for anti-phospho-NIK antibody, “Phospho-NIK” was used, for anti-NIK antibody, “NIK” was used, for anti-phospho-IKK antibody, “Phospho-IKK” was used, for anti-IKK antibody, “IKK” was used, for anti-p-actin antibody, “p-actin” was used, for anti-NF-κB p52 antibody, “NF-κB p52 nuclear” was used, for anti-NF-κB p65 antibody, “NF-κB p65 nuclear” was used, and for anti-Lamin antibody, “Lamin” was used.
(Immunoblotting shows a protein as a band on a membrane.)

In test [2] the test system is CCRF-SB cells (acute lymphocytic leukemia cell line). The test is described as follows: Cell death inducing effect on CCRF-SB cells, trypan blue staining. Conditions: CCRF-SB (acute lymphoblastic leukemia), cell viability. Here is the method: CCRF-SB cells (acute lymphocytic leukemia cell line) were cultured under 5% CO2 at 37° C. The culture medium used RPMI-1640 medium with 100 μg/mL penicillin, 100 U/mL streptomycin and fetal bovine serum. CCRF-SB cells were seeded into 96-well plates and incubated with each concentration of the compounds was added, and cell viability was determined by the trypan blue staining.
as §1, §2

Test [3] concerns SU-DHL-4 cells (diffuse large B-cell lymphoma). Kind of test: Cell death inducing effect on SU-DHL-4 cells, trypan blue staining. The settings on record: SU-DHL-4 (DLBCL), cell viability. Here is the method: SU-DHL-4 cells (diffuse large B-cell lymphoma) were cultured under 5% CO2 at 37° C.
The culture medium used RPMI-1640 medium with 100 μg/mL penicillin, 100 U/mL streptomycin and fetal bovine serum. SU-DHL-4 cells were seeded into 96-well plates and incubated with each concentration of the compounds was added, and cell viability was determined by the trypan blue staining.
as §1, §2

The test system of a further test is CD138. The test is described as follows: CD138 expression in KMS-28BM cells, flow cytometry. Conditions: 10 days, concentration lower than the IC50 (0.005-50 μM), compared to the positive control. Here is the method:
As a control, compounds untreated KMS-28BM cells were seeded in 75 cm^2 flasks and incubated for 10 days at 37° C. and 5% CO2. KMS-28BM cells were seeded into 75 cm^2 flasks and pre-cultured for 4 h. After incubation, KMS-28BM cells were treated with […], 0.05 μM M9, 0.1 μM yk-7, 0.1 μM yk-8-3, 50 μM yk-8-1, 0.5 μM M11, […], 0.005 μM M14, 0.005 μM M15, 0.005 μM M16, 0.5 μM M18, and 0.5 μM M19 at final concentrations, and incubated for 10 days at 37° C. and 5% CO2. This added amount is a concentration lower than the IC50 of the above compounds for KMS-28BM cells. After 10 days of incubation, cells were stained with anti-CD138 antibody, a marker of multiple myeloma grade, and CD138 expression was measured using BD LSRFortessa.
Results are shown in FIG. 17, FIG. 18, FIG. 19 and FIG. 20. The horizontal axis represents the expression level of CD138 and the vertical axis represents the number of cells.
In general terms: A flow cytometer gives signals particle by particle.

“1,2′,3′,4′,6-penta-O-propionylmangiferin [Compound 8a, reference compound]”: the concentration for half-maximal inhibition (IC50) (usually the concentration that gives 50% inhibition) in test [1] was found to be 4150 nM; in test [2], 7420 nM; in test [3], 8060 nM. In addition, the “NF-κB p52 nuclear” value in the test with NF-κB p52 nuclear is listed as “decreased”.
As for `CCC(=O)OC[C@H]1O[C@@H](c2c(OC(=O)CC)cc3oc4cc(OC(=O)CC)c(OC(=O)CC)cc4c(=O)c3c2OC(=O)CC)[C@H](OC(=O)CC)[C@@H](OC(=O)CC)[C@@H]1OC(=O)CC` [Compound M7, 1,3,2′,3′,4′,6,6′,7-octa-O-propionylmangiferin], the 50% inhibitory concentration (IC50) in test [1] (Homo sapiens) stood at 898 nM; in test [2] (Homo sapiens), 6760 nM; in test [3] (Homo sapiens), 771 nM. Further, the “NF-κB p52 nuclear” value in the test with NF-κB p52 nuclear was “decreased”. In addition, in the test with CD138, the CD138 expression levels result is recorded as “markedly reduced”.
The like results for `CCC(=O)OC[C@H]1O[C@@H](c2c(O)cc3oc4cc(O)c(O)cc4c(=O)c3c2O)[C@H](OC(=O)CC)[C@@H](OC(=O)CC)[C@@H]1OC(=O)CC` [Compound M9, 2′,3′,4′,6′-tetra-O-propionylmangiferin] were, in that order, 227 nM, 1620 nM, 86 nM, “decreased” and “markedly reduced”.
Regarding `CCCC(=O)OC[C@H]1O[C@@H](c2c(OC(=O)CCC)cc3oc4cc(OC(=O)CCC)c(OC(=O)CCC)cc4c(=O)c3c2OC(=O)CCC)[C@H](OC(=O)CCC)[C@@H](OC(=O)CCC)[C@@H]1OC(=O)CCC` [Compound M11, 1,3,2′,3′,4′,6,6′,7-octa-O-butyrylmangiferin], the IC50 was determined as 698 nM in test [1], 7820 nM in test [2] and 415 nM in test [3]. Further, the “NF-κB p52 nuclear” value in the test with NF-κB p52 nuclear is given as “decreased”. Besides, the CD138 expression levels entry with CD138 is given as “markedly reduced”.
Consider `CCCC(=O)OC[C@H]1O[C@@H](c2c(O)cc3oc4cc(O)c(O)cc4c(=O)c3c2OC(=O)CCC)[C@H](OC(=O)CCC)[C@@H](OC(=O)CCC)[C@@H]1OC(=O)CCC` [Compound M12, 1,2′,3′,4′,6-penta-O-butyrylmangiferin], for which the results for the IC50 in test [1] (Homo sapiens), in test [2] (Homo sapiens) and in test [3] (Homo sapiens) were 657 nM, 954 nM and 5 nM, respectively. Besides, the “NF-κB p52 nuclear” value with NF-κB p52 nuclear is recorded as “decreased”. Also, the CD138 expression levels result in the test with CD138 is recorded as “markedly reduced”.
The like results for `CCCC(=O)OC[C@H]1O[C@@H](c2c(O)cc3oc4cc(O)c(O)cc4c(=O)c3c2O)[C@H](OC(=O)CCC)[C@@H](OC(=O)CCC)[C@@H]1OC(=O)CCC` [Compound M14, 2′,3′,4′,6′-tetra-O-butyrylmangiferin] were, in that order, 85 nM, 287 nM, 2 nM, “decreased” and “markedly reduced”.
Consider `CC(C)(C)C(=O)OC[C@H]1O[C@@H](c2c(O)cc3oc4cc(O)c(O)cc4c(=O)c3c2O)[C@H](OC(=O)C(C)(C)C)[C@@H](OC(=O)C(C)(C)C)[C@@H]1OC(=O)C(C)(C)C` [Compound M15, 2′,3′,4′,6′-tetra-O-pivaloylmangiferin], for which the concentration for half-maximal inhibition (IC50) in test [1] (Homo sapiens) was found to be 96 nM; in test [2] (Homo sapiens), 357 nM; in test [3] (Homo sapiens), 2 nM. For the same compound, the “NF-κB p52 nuclear” value in the test on NF-κB p52 nuclear is given as “decreased”. The CD138 expression levels result in the test on CD138 is listed as “markedly reduced”.
Take `CCCCO[C@@H]1[C@@H](OCCCC)[C@H](c2c(O)cc3oc4cc(O)c(O)cc4c(=O)c3c2O)O[C@H](COC(=O)CCC)[C@H]1OC(=O)CCC` [Compound M16, 2′,3′-di-O-butyl-4′,6′-di-O-butyrylmangiferin]: the IC50 in test [1] (Homo sapiens) turned out to be 79 nM; in test [2] (Homo sapiens), 198 nM; in test [3] (Homo sapiens), 11 nM. For the same compound, the “NF-κB p52 nuclear” value with NF-κB p52 nuclear is listed as “decreased”. Further, the CD138 expression levels result in the test with CD138 is listed as “markedly reduced”.
As to `O=c1c2cc(O)c(O)cc2oc2cc(O)cc(O)c12` [norathyriol, reference compound], the values for the concentration for half-maximal inhibition (IC50) in test [1] (Homo sapiens), in test [2] (Homo sapiens) and in test [3] (Homo sapiens) were 8600 nM, 12300 nM and 18400 nM, respectively. Further, in the test with NF-κB p52 nuclear, the “NF-κB p52 nuclear” value is “decreased”.
